The source of these data is ChEMBL document CHEMBL1137217, “Further structurally constrained analogues of cis-(6-benzhydrylpiperidin-3-yl)benzylamine with elucidation of bioactive conformation: discovery of 1,4-diazabicyclo[3.3.1]nonane derivatives and evaluation of their biological properties for the monoamine transporters” (J Med Chem, 2004).

Test [1] deals with Norepinephrine transporter (Rattus norvegicus, UniProt Q9WTR4). Briefly: Inhibition of [3H]nisoxetine binding to norepinephrine transporter of rat cerebral cortex. The class given is tissue-based.
Chain of Norepinephrine transporter (Q9WTR4 whole entry): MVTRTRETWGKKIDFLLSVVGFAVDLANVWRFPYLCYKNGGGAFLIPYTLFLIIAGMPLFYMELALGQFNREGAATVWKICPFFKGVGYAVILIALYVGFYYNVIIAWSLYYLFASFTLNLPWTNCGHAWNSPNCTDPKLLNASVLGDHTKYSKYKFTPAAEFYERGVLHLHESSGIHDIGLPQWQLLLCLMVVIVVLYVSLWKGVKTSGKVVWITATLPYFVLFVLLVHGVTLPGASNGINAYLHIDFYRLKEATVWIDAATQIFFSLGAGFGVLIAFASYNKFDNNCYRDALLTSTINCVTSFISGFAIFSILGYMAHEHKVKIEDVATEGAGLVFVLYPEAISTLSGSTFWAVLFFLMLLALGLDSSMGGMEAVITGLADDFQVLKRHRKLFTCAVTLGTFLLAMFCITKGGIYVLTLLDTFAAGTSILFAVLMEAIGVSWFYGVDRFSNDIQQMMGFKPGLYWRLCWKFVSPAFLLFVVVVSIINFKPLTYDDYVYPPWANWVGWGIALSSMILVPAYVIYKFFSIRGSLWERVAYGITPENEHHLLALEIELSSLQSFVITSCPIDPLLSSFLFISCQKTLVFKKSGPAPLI
Test [2] concerns the target Monoamine transporters; serotonin & dopamine (Rattus norvegicus) (UniProt P31652+P23977). The test can be described thus: Relative binding affinity for serotonin and dopamine transporters, ratio of IC50. Type of test: protein assay.
Test [3] concerns the target Monoamine transporters; Norepininephrine & dopamine (Rattus norvegicus) (UniProt P23977+Q9WTR4). Briefly: Relative binding affinity for norepinephrine and dopamine transporter, ratio of IC50. Type of test: protein assay.
The target of test [4] is Sodium-dependent serotonin transporter (Rattus norvegicus, UniProt P31652). Briefly: Inhibition of [3H]citalopram binding to serotonin transporter of rat cerebral cortex. The class given is tissue-based.
Chain of Sodium-dependent serotonin transporter (P31652 whole entry): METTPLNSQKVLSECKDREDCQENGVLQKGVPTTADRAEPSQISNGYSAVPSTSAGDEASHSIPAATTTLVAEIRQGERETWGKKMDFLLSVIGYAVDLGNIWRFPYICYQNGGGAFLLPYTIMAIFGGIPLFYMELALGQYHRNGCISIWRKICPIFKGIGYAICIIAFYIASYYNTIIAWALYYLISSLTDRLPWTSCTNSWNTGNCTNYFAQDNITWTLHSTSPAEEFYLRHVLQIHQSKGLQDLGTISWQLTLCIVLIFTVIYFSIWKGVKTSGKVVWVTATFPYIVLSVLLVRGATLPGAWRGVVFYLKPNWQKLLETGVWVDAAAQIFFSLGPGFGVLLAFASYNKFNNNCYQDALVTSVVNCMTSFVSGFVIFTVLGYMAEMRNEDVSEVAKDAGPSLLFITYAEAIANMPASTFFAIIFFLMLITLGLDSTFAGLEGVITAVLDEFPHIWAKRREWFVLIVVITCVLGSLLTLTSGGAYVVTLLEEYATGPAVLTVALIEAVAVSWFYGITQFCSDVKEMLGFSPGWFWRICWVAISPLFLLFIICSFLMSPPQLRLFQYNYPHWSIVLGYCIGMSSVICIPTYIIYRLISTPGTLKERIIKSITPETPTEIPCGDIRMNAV
Test [5] has as its target T1, Sodium-dependent dopamine transporter (Rattus norvegicus, UniProt P23977). Briefly: Inhibition of [3H]WIN-35428 binding to dopamine transporter of rat striatum. The class given is tissue-based.
Test [6] concerns the target T1, Sodium-dependent dopamine transporter. The test can be described thus: Concentration required to inhibit [3H]DA (dopamine) uptake into rat striatal synaptosomes. The class given is functional, subcellular, Brain.
The target in test [7] is Sodium-dependent dopamine transporter (Rattus norvegicus) (UniProt P23977). Briefly: Ratio of IC50 for [3H]DA uptake to and dopamine transporter binding.
Chain of Sodium-dependent dopamine transporter (Rattus norvegicus) (P23977 whole entry): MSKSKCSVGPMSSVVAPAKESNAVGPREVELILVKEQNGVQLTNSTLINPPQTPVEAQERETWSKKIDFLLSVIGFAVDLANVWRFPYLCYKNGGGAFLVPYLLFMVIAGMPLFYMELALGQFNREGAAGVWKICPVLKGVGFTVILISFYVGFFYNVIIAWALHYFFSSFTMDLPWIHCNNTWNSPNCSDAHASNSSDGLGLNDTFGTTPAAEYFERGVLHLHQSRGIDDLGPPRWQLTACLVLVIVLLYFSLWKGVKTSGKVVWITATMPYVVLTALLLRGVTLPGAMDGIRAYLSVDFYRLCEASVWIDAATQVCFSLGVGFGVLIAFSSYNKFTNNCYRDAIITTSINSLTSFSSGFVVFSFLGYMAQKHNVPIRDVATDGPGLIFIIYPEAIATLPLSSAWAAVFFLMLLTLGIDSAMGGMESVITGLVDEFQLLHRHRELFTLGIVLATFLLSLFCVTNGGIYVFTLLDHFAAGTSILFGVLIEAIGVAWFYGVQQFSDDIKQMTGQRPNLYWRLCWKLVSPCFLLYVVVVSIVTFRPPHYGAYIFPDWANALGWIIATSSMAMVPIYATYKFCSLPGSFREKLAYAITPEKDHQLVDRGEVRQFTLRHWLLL

Chain of Monoamine transporters; serotonin & dopamine (Rattus norvegicus) (P23977 whole entry, looked up): as the sequence (P23977 whole entry) above
Chain of Monoamine transporters; serotonin & dopamine (Rattus norvegicus) (P31652 whole entry, looked up): as the sequence (P31652 whole entry) above
T1 sequence (P23977 whole entry): as the sequence (P23977 whole entry) above

`Fc1ccc(CNC2CCC(C(c3ccccc3)c3ccccc3)N(Cc3ccc(F)cc3)C2)cc1` (stereo unspecified): the figures for the half-maximal inhibitory concentration (IC50) in test [1], in test [4] and in test [5] were 12.6 µM, 18.9 µM and 1.24 µM, respectively. Also, the figures for the Selectivity in test [2] and in test [3] were 10 and 12, respectively.
For `O=S(=O)(Nc1ccc(CN2CCN3CC2CCC3C(c2ccccc2)c2ccccc2)cc1)c1ccc(Cl)cc1` (stereo unspecified), the half-maximal inhibitory concentration (IC50) (in general, the concentration that inhibits the measured activity by half) was determined as 3.48 µM in test [1], 4.13 µM in test [4] and 0.371 µM in test [5]. The Selectivity was 11 in test [2] and 9 in test [3].
For the compound `Fc1ccc(CNC2CCC(C(c3ccccc3)c3ccccc3)NC2)cc1` (stereo unspecified), the IC50 worked out at 1.42 µM in test [1], 0.0338 µM in test [5] and 0.0538 µM in test [6].
Consider `CN1CCN2CC1CCC2C(c1ccccc1)c1ccccc1` (stereo unspecified), for which the values for the IC50 in test [1], in test [4] and in test [5] were 60.1 µM, 157 µM and 4.71 µM, respectively. In addition, the values for the Selectivity in test [2] and in test [3] were 33 and 13, respectively.
`COc1ccc(CNC2CCC(C(c3ccccc3)c3ccccc3)NC2)cc1` (stereo unspecified): the IC50 in test [1] is 1.11 µM; in test [4], 1.04 µM; in test [5] it was 0.0475 µM; in test [6], 0.0405 µM. The Selectivity is 22 in test [2], 23 in test [3] and 0.85 in test [7].
Consider `COc1ccc(CN2CCN3C[C@@H]2CC[C@H]3C(c2ccccc2)c2ccccc2)cc1`, for which the half-maximal inhibitory concentration (IC50) was more than 10 µM in test [1], 8.65 µM in test [4], 0.0225 µM in test [5] and 0.0184 µM in test [6]. In addition, the Selectivity is 384 in test [2], more than 444 in test [3] and 0.8 in test [7].
For the compound `COc1ccc(CN2CCN3C[C@H]2CC[C@@H]3C(c2ccccc2)c2ccccc2)cc1`, the concentration for half-maximal inhibition (IC50) is more than 10 µM in test [1], 6.63 µM in test [4], 0.329 µM in test [5] and 0.269 µM in test [6]. The Selectivity in test [2] is 20; in test [3], more than 30; in test [7] it was 0.8.
As to `CN(Cc1ccc(F)cc1)C1CCC(C(c2ccccc2)c2ccccc2)N(C)C1` (stereo unspecified), the IC50 in test [1] was determined as 7 µM; in test [4], 2.36 µM; in test [5], 0.225 µM. The Selectivity in test [2] came to 10; in test [3] it was 31.
As for `Fc1ccc(CCN2CCN3CC2CCC3C(c2ccccc2)c2ccccc2)cc1` (stereo unspecified), the values for the IC50 in test [1], in test [4] and in test [5] were more than 10 µM, 2.55 µM and 0.565 µM, respectively. In addition, the Selectivity in test [2] was 4; in test [3], more than 18.
On to `N#Cc1ccc(CNC2CCC(C(c3ccccc3)c3ccccc3)NC2)cc1` (stereo unspecified), for which the IC50 stood at 1.67 µM in test [1], 0.434 µM in test [4], 0.0112 µM in test [5] and 0.0091 µM in test [6]. The Selectivity stood at 38 in test [2], 148 in test [3] and 0.8 in test [7].
